{"source": "patent US7625507B2", "about": "“Extrusion process for forming chemically stable drug multiparticulates” (Pfizer Inc., priority 2003, dated 2009)", "test": "Lability of drug held in molten mixture for 60 minutes", "type": "physicochemical", "conditions": "50 wt % azithromycin dihydrate", "experimental": "The multiparticulates formed by the process of the present invention comprise a labile drug and a carrier. As used herein the term “labile” refers to drugs that degrade by at least 0.01 wt % when held in a molten mixture of drug, carrier and optional excipient(s) for 60 minutes. Details on carriers and optional excipients are discussed below. The term “drug” as used herein includes, by way of example and not of limitation, any physiologically or pharmacologically active substance that produces a localized or systemic effect in animals. The term “animals” includes mammals, particularly humans, as well as other animals.\nLabile drugs may be identified experimentally by determining whether the drug chemically reacts or degrades when held in the molten mixture of drug, carrier and optional excipients for 60 minutes. In general, drug degradation may be measured using any conventional method for measuring the purity or potency of drug in a pharmaceutical composition. For example, the purity or potency of the drug substance prior to formation of the molten mixture may be measured using high-performance liquid chromatography (HPLC) or other analytical techniques well known in the art. […] The purity or potency of the drug after being in the molten mixture for 60 minutes is then determined. […]"}
{"smiles": "CC[C@H]1OC(=O)[C@H](C)[C@@H](O[C@H]2C[C@@](C)(OC)[C@@H](O)[C@H](C)O2)[C@H](C)[C@@H](O[C@@H]2O[C@H](C)C[C@H](N(C)C)[C@H]2O)[C@](C)(O)C[C@@H](C)CN(C)[C@H](C)[C@@H](O)[C@]1(C)O", "note": "[azithromycin, 9a-aza-9a-methyl-9-deoxo-9a-homoerythromycin A]", "values": [{"measurement": "lability in molten mixture", "setting": "47 wt % COMPRITOL 888 ATO, 3 wt % LUTROL F127 at 90° C. for 60 minutes", "value": "labile"}, {"measurement": "lability in molten mixture", "setting": "48 wt % microcrystalline wax, 2 wt % LUTROL F127, held 60 minutes", "value": "not labile"}]}
